From patent US11185557B2, “Use of rhamnose and derivatives thereof as antifungal agents” (ISDIN, S.A., priority 2017, dated 2021)

Tested on: Malassezia furfur
Assay: Ex-vivo antifungal activity assay on inoculated human skin explants, product applied 24 hours after inoculation, CFU quantification
Assay type: cell-based
Conditions: topical 2 mg/cm^2 applied 24 hours post inoculation, versus inoculum (C1) and untreated control explants (C2), FIG. 2
Method: Human organotypic skin cultures were obtained from abdominal skin removed during aesthetic surgery. These skin explants were altered by partial elimination of stratum corneum to facilitate the colonization and MF suspension was placed on the skin surface and incubated for 24 hours under conditions that are optimal for MF growth. 24 hours post initial MF inoculation, NSFC was topically applied on skin explants (2 mg/cm^2) and spread evenly. On control skin explants, inoculated in the same way, no product was applied (C2). A sham control group was treated with a neutral cream without known antifungal properties, petroleum jelly (P3). Growth of MF was monitored by quantifying MF Colony Forming Units (CFUs) in a sample removed from skin surface. The quantification of CFUs was carried out by recovering fungal microorganisms from skin explants and subsequent plating them following the serial dilution method to determine the number of CFUs.
The antifungal activity was evaluated for Ketoconazole 2% (P1), the composition of example 1 (P2), and petroleum jelly (Vaseline) (P3) with respect to the inoculum concentration (C1) and control skin explants (C2).

CC(=O)N1CCN(c2ccc(OCC3COC(Cn4ccnc4)(c4ccc(Cl)cc4Cl)O3)cc2)CC1 (stereo not shown) [Ketoconazol 2%, ketoconazole]
growth of M. furfur on the skin explants (CFUs): reduced the growth of the fungus
